Source: the supplement of paper PMC10307832

Assays:
Assay in all cases: relative viability (nuclei count vs DMSO), 5 days (fraction); higher = more cells survive
R406 = compound: COc1cc(Nc2ncc(F)c(Nc3ccc4c(n3)NC(=O)C(C)(C)O4)n2)cc(OC)c1OC [R406]
Outline: (§1)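 On vehicle-anchored 1536-well plates, lung cancer cell lines held overnight at 37 °C were pinned with five library-drug doses (not always all listed) spaced by √10. With no medium change over 5 days, they were then fixed, permeabilised and Hoechst-stained in one step and imaged at 4×. MetaXpress counted nuclei, and viability is the median across plates of treated-well over vehicle-well nuclei. Acceptance needed control CV below 25% and at least one doubling.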

Daporinad = compound: O=C(/C=C/c1cccnc1)NCCCCC1CCN(C(=O)c2ccccc2)CC1 [Daporinad]
Outline: as §1

R406 + Alpelisib = compound: COc1cc(Nc2ncc(F)c(Nc3ccc4c(n3)NC(=O)C(C)(C)O4)n2)cc(OC)c1OC [R406] + Cc1nc(NC(=O)N2CCC[C@H]2C(N)=O)sc1-c1ccnc(C(C)(C)C(F)(F)F)c1 [Alpelisib] (partner 2 µM)
Outline: (§2)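 Nuclei were stained with Hoechst during a one-step fixation (final 0.05% Triton X-100, 1% formaldehyde, 1 ug/ml Hoechst) carried out 5 days after dosing, then counted on 4× images. The cells, lung cancer lines in 1536-well plates, had been dosed by pin tool the day after seeding with one drug alone or a fixed anchor-drug dose plus five library-drug doses (not always all listed) in √10 steps. Relative viability is the nuclei count in treated wells divided by that in vehicle wells, and each value is the median of duplicate plates.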

Daporinad + Pemetrexed = compound: O=C(/C=C/c1cccnc1)NCCCCC1CCN(C(=O)c2ccccc2)CC1 [Daporinad] + Nc1nc2[nH]cc(CCc3ccc(C(=O)N[C@@H](CCC(=O)O)C(=O)O)cc3)c2c(=O)[nH]1 [Pemetrexed] (partner 0.2 µM)
Outline: as §2

Row | Cell Line | relative viability (R406; 0.08 µM) | relative viability (R406; 0.253 µM) | relative viability (R406; 0.8 µM) | relative viability (R406; 2.53 µM) | relative viability (R406; 8 µM) | relative viability (Daporinad; 0.0005 µM) | relative viability (Daporinad; 0.001581 µM) | relative viability (Daporinad; 0.005 µM) | relative viability (Daporinad; 0.01581 µM) | relative viability (R406 + Alpelisib; first compound 0.08 µM) | relative viability (R406 + Alpelisib; first compound 0.253 µM) | relative viability (R406 + Alpelisib; first compound 0.8 µM) | relative viability (R406 + Alpelisib; first compound 2.53 µM) | relative viability (R406 + Alpelisib; first compound 8 µM) | relative viability (Daporinad + Pemetrexed; first compound 0.0005 µM) | relative viability (Daporinad + Pemetrexed; first compound 0.001581 µM) | relative viability (Daporinad + Pemetrexed; first compound 0.005 µM) | relative viability (Daporinad + Pemetrexed; first compound 0.01581 µM)
1 | NCI-H661 | 0.888 | 0.947 | 1.01 | 0.967 | 0.649 | 1.01 | 0.982 | 0.72 | 0.605 | 0.299 | 0.878 | 0.877 | 0.597 | 0.274 | 0.959 | 0.791 | 0.652 | 0.51
2 | PC-14 | 0.968 | 1.18 | 1.09 | 0.759 | 0.601 | 0.951 | 1.08 | 1.08 | 0.871 | 0.947 | 1.01 | 1.01 | 0.664 | 0.636 | 0.0976 | 0.126 | 0.153 | 0.146
3 | COR-L 105 | 0.911 | 1.05 | 1.12 | 0.666 | 0.418 | 0.906 | 0.976 | 0.991 | 0.969 | 1.26 | 1.01 | 1.4 | 0.757 | 0.641 | 1.21 | 1 | 1.18 | 1.02
4 | NCI-H2405 | 0.98 | 1.11 | 1.06 | 0.746 | 0.382 | 1.08 | 1.12 | 1.02 | 0.509 | 0.751 | 0.756 | 0.795 | 0.466 | 0.205 | 1.17 | 1.14 | 1.03 | 0.413
5 | NCI-H1395 | 1.01 | 1.05 | 1.02 | 0.713 | 0.635 | 0.88 | 1.09 | 1.09 | 0.969 | 1.13 | 1.04 | 1.09 | 0.813 | 0.619 | 0.839 | 1.05 | 0.896 | 0.927
6 | NCI-H1915 | 1.01 | 1.15 | 1.05 | 0.667 | 0.835 | 1.01 | 1.13 | 1.07 | 1.03 | 1.08 | 1.12 | 1.04 | 1.02 | 1.01 | 0.474 | 0.505 | 0.499 | 0.174
7 | CAL-12T | 0.993 | 1.22 | 1.12 | 0.511 | 0.434 | 0.904 | 1.03 | 0.735 | 0.269 | 1.3 | 1.54 | 1.83 | 1.03 | 0.923 | 1.09 | 1.21 | 0.502 | 0.314
8 | NCI-H441 | 0.903 | 1.16 | 1.31 | 0.424 | 0.611 | 0.898 | 1.13 | 1.18 | 1.07 |  | 0.843 | 0.878 |  | 0.296 | 0.242 | 0.243 | 0.268 | 0.291
9 | LXF-289 | 0.976 | 1.06 | 1.04 | 0.956 | 0.845 | 0.959 | 1.1 | 1.09 | 1.1 | 0.977 | 1.06 | 1.04 | 1 | 0.193 | 0.837 | 0.978 | 0.937 | 0.889
10 | NCI-H520 | 0.869 | 1.12 | 1.12 | 0.559 | 0.298 | 1.14 | 0.804 | 0.286 | 0.238 | 0.913 | 1.09 | 0.779 | 0.316 | 0.525 | 0.67 | 0.395 | 0.239 | 0.149
11 | NCI-H2009 | 0.975 | 1.04 | 1.11 | 0.853 | 0.376 | 0.918 | 1.08 | 1.07 | 0.905 | 1.18 | 1.22 | 1.24 | 1.05 | 1.05 | 1.04 | 1.01 | 0.872 | 0.545
12 | 201T | 0.929 | 1.02 | 1.06 | 0.844 | 0.67 | 0.962 | 1.04 | 0.972 | 1.01 | 1.03 | 1.02 | 1.04 | 0.979 | 0.86 | 0.333 | 0.315 | 0.313 | 0.34
13 | NCI-H23 | 0.948 | 1.21 | 1.1 | 0.264 | 0.252 | 1.03 | 1.06 | 0.973 | 0.53 | 0.638 | 0.759 | 0.786 | 0.732 | 0.438 | 0.797 | 0.562 | 0.767 | 0.31
14 | LOU-NH91 | 0.916 | 0.963 | 0.928 | 0.512 | 0.576 | 0.996 | 1.05 | 1.14 | 1.24 | 0.726 | 0.718 | 0.789 | 0.51 | 0.449 | 0.383 | 0.359 | 0.509 | 0.482
15 | NCI-H2085 | 0.99 | 1.06 | 1.1 | 0.823 | 0.736 | 0.984 | 1.02 | 1.08 | 1.18 | 0.971 | 1.02 | 1.05 | 0.829 | 0.612 | 0.843 |  | 0.994 | 1.04
16 | COR-L23 | 0.953 | 1.17 | 1.16 | 0.901 | 0.592 | 1.02 | 1.04 | 0.908 | 0.275 | 0.725 | 0.947 | 0.828 | 0.553 | 0.388 | 0.194 | 0.198 | 0.208 | 0.196
17 | BEN | 0.862 | 1.24 | 1.03 | 1.05 | 0.832 | 0.962 | 1.04 | 0.969 | 1.31 | 1.08 | 1.3 | 1.07 | 0.99 | 0.766 | 0.726 | 0.792 | 0.953 | 0.935
18 | LK-2 | 0.86 | 1.22 | 1.09 | 0.682 | 0.431 | 0.909 | 1.18 | 0.781 | 0.283 | 0.98 | 1.05 | 1.02 | 0.803 | 0.566 | 0.314 | 0.331 | 0.188 | 0.142
